The record followed here is patent publication US9592221B2, “Antibacterial agents: aryl myxopyronin derivatives” (priority 2012, dated 2017).

In test [1] the test system is Staphylococcus aureus ATCC 12600. The test can be described thus: MIC, spiral gradient endpoint assay, S. aureus ATCC 12600. In kind it is cell-based. As to conditions: ATCC12600; Staphylococcus aureus ATCC 12600.
Test [2] has as its system Acinetobacter baumannii ATCC 19606. The test can be described thus: MIC, spiral gradient endpoint assay, A. baumannii. Conditions: ATCC19606; Acinetobacter baumannii ATCC 19606. In kind it is cell-based.
Test [3] deals with E. coli RNA polymerase σ^70 holoenzyme (Escherichia coli, UniProt P0A8T7+P0A8V2). The test can be described thus: Fluorescence-detected RNA polymerase assay, E. coli RNA polymerase. It counts as biochemical. As to conditions: read-out: IC50 E. coli RNAP.
Test [4] deals with S. aureus RNA polymerase core enzyme, S. aureus σ^A (Staphylococcus aureus, UniProt P47768+Q2G0N5). The test can be described thus: Fluorescence-detected RNA polymerase assay, S. aureus RNA polymerase. It counts as biochemical. As to conditions: read-out: IC50 S. aureus RNAP.
Test [5] has as its system Mycobacterium tuberculosis H37Rv. The test can be described thus: MIC, microplate Alamar Blue assay, M. tuberculosis. In kind it is cell-based. For orientation: Alamar Blue is a resazurin reagent that responds to reducing activity.
For test [6], the system named is Escherichia coli D21f2tolC. Nature of the test: MIC, spiral gradient endpoint assay, E. coli D21f2tolC. It counts as cell-based. As to conditions: Escherichia coli, D21F2TOLC, read-out: MIC E. coli D21f2toIC.
For test [7], the target named is M. tuberculosis RNA polymerase core enzyme, M. tuberculosis σ^A (Mycobacterium tuberculosis, UniProt P9WGY7+P9WGY9). Nature of the test: Fluorescence-detected RNA polymerase assay, M. tuberculosis RNA polymerase. In kind it is biochemical. Conditions: read-out: IC50 M. tuberculosis RNAP.
The subject of test [8] is Francisella tularensis SCHU4. Nature of the test: microbe, parasite or virus in culture. It counts as cell-based. Conditions: Francisella tularensis, SCHU4, read-out: MIC F. tularensis SCHU4.
The test system of test [9] is Burkholderia pseudomallei Human/Blood/OH/US/1994. Nature of the test: microbe, parasite or virus in culture. It counts as cell-based. As to conditions: Burkholderia pseudomallei, read-out: MIC B. pseudomallei Human/Blood/OH.
Test [10] concerns Bacillus anthracis Vollum 1b. The test can be described thus: microbe, parasite or virus in culture. As to conditions: Bacillus anthracis, VOLLUM1B, read-out: MIC B. anthracis Vollum-1b. It counts as cell-based.
For a further test, the system named is Brucella melitensis 16M. The test can be described thus: microbe, parasite or virus in culture. In kind it is cell-based. Conditions: Brucella melitensis, 16M, read-out: MIC B. melitensis 16M.
Another test deals with Burkholderia mallei CHN7. The test can be described thus: microbe, parasite or virus in culture. It counts as cell-based. Conditions: Burkholderia mallei, CHN7, read-out: MIC B. mallei CHN7.
A further test has as its system Yersinia pestis C092. Nature of the test: microbe, parasite or virus in culture. It counts as cell-based. Conditions: Yersinia pestis, C092, read-out: MIC Y. pestis C092.

Values after ≈ are worked out from the molar mass of the structure shown.

M. tuberculosis RNA polymerase core enzyme, M. tuberculosis σ^A, sequence (P9WGI1 whole entry): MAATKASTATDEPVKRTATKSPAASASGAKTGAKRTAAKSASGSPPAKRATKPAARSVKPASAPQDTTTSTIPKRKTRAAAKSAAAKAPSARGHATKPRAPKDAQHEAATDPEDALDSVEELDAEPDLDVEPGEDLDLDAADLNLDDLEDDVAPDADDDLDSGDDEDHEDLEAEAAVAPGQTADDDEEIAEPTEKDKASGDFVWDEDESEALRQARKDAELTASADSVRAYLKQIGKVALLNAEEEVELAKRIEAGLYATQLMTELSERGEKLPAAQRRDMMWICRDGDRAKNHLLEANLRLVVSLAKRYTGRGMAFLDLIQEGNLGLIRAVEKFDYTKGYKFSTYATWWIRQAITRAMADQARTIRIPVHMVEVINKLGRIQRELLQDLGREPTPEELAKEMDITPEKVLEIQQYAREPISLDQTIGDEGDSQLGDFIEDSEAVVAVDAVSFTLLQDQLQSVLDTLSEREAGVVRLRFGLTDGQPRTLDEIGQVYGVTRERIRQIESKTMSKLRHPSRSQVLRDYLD
M. tuberculosis RNA polymerase core enzyme, M. tuberculosis σ^A, sequence (P9WGY5 whole entry, further chain): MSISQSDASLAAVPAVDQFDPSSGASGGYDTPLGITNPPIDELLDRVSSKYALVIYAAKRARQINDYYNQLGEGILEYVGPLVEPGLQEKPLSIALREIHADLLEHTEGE
M. tuberculosis RNA polymerase core enzyme, M. tuberculosis σ^A, sequence (P9WGY7 whole entry): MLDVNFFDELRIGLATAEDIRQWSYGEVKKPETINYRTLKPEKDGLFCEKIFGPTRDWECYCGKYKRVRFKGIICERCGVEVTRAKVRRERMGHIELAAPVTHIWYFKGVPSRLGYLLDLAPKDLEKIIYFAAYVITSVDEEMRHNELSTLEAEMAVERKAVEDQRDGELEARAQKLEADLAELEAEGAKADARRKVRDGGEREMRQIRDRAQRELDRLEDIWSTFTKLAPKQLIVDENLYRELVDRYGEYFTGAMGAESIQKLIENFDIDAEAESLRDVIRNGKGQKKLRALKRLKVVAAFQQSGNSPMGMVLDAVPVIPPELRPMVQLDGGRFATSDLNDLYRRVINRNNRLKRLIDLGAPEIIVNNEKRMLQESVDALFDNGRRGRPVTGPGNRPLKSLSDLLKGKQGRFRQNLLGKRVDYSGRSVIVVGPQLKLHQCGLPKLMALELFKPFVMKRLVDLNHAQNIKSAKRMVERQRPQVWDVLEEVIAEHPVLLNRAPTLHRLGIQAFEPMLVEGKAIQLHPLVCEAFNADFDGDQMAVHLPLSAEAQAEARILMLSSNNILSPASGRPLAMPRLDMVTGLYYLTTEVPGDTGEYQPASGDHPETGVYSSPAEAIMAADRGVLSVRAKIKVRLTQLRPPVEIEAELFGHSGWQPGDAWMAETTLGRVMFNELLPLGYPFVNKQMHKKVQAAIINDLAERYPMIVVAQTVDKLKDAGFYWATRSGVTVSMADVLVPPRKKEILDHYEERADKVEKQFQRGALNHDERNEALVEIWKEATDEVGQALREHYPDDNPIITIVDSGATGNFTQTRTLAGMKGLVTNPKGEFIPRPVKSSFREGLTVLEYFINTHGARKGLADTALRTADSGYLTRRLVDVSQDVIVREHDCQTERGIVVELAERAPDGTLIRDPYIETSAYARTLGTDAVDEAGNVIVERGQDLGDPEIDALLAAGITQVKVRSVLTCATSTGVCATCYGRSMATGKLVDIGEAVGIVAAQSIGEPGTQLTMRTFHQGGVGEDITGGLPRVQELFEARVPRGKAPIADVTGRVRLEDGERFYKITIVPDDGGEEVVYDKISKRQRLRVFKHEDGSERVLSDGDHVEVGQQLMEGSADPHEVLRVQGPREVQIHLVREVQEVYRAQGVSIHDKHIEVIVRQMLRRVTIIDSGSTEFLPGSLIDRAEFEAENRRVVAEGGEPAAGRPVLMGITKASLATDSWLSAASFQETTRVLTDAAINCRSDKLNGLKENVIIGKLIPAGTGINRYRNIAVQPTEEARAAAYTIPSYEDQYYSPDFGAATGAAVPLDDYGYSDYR
M. tuberculosis RNA polymerase core enzyme, M. tuberculosis σ^A, sequence (P9WGY9 whole entry): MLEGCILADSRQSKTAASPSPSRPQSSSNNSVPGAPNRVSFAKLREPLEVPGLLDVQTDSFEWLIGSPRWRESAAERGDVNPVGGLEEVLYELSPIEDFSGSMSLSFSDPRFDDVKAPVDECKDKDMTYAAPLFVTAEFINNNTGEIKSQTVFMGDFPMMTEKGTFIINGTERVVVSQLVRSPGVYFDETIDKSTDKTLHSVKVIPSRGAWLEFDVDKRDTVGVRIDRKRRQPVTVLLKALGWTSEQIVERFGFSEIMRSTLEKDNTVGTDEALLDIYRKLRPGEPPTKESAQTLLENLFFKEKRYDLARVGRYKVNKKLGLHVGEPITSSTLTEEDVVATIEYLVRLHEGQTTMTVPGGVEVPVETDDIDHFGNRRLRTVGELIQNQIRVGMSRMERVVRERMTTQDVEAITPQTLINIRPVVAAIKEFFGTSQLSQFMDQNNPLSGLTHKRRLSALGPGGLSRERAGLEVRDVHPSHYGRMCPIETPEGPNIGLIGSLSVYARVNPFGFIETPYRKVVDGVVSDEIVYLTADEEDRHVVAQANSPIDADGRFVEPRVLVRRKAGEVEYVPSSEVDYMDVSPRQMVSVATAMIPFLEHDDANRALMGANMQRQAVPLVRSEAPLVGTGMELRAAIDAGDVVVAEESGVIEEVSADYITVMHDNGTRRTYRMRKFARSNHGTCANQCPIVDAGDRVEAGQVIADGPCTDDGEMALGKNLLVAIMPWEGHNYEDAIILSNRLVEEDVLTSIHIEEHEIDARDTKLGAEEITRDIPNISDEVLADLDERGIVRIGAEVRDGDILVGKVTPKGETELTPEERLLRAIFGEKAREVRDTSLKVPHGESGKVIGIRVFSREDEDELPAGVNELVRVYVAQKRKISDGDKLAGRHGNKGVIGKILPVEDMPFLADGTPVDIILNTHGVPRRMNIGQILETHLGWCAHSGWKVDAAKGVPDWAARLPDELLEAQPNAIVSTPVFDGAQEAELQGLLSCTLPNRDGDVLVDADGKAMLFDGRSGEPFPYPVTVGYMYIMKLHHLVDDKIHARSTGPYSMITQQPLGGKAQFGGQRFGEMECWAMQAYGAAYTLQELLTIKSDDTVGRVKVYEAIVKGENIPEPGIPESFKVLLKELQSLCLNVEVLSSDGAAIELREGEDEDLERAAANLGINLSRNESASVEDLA
M. tuberculosis RNA polymerase core enzyme, M. tuberculosis σ^A, sequence (P9WGZ1 whole entry, further chain): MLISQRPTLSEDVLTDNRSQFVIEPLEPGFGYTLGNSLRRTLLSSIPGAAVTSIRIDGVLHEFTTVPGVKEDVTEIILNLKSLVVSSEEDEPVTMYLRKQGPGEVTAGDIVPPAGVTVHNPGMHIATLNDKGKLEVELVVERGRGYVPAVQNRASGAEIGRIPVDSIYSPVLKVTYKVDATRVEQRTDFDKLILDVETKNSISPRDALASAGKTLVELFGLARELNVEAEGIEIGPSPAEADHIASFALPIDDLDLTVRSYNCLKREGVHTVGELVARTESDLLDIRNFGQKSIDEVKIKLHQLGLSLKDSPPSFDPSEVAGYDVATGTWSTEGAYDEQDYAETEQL

As usually defined, the IC50 is the point on the concentration scale where inhibition reaches its midpoint. As for `CCCCc1ccc2cc(C=C(C)C(=O)c3c(O)cc(C(C)CC/C=C/NC(=O)OC)oc3=O)sc2c1` (mixture of isomers) [APY86, methyl ((1E)-5-(3-(3-(6-butylbenzo[b]thiophen-2-yl)-2-methylacryloyl)-4-hydroxy-2-oxo-2H-pyran-6-yl)hex-1-en-1-yl)carbamate], the MIC in [1] is greater than 40 mg/L; in test [2], greater than 40 mg/L; in test [5] it was greater than 50 mg/L; in [6] it was 0.2 mg/L. Also, the values for the concentration for half-maximal inhibition (IC50) in test [3], in test [4] and in test [7] were 0.02 µM, 0.3 µM and 1 µM, respectively.

Regarding `COCCCc1ccc(C=C(C)C(=O)c2c(O)cc(C(C)CC/C=C/NC(=O)OC)oc2=O)s1` (mixture of isomers) [APY100, methyl ((1E)-5-(4-hydroxy-3-(3-(5-(3-methoxypropyl)thiophen-2-yl)-2-methylacryloyl)-2-oxo-2H-pyran-6-yl)hex-1-en-1-yl)carbamate], the MIC was greater than 40 mg/L in test [1], greater than 40 mg/L in test [2] and 1 mg/L in test [6]. The results for the IC50 in test [3] and in test [7] were 0.06 µM and 1 µM, respectively.

`CCCCc1cc(C)c(C=C(C)C(=O)c2c(O)cc(C(C)CC/C=C/NC(=O)OC)oc2=O)s1` (mixture of isomers) [APY75, methyl (E)-5-(3-((E/Z)-3-(5-butyl-3-methylthiophen-2-yl)-2-methylacryloyl)-4-hydroxy-2-oxo-2H-pyran-6-yl)hex-1-enylcarbamate]: the MIC in [1] was determined as 0.3 mg/L; in test [2], 4 mg/L; in test [8] it was 10 mg/L; in test [9], 6 mg/L; in test [5] it was 30 mg/L; in test [10], 0.8 mg/L. Moreover, the MIC in [6] is 0.1 mg/L; in the test on Brucella melitensis 16M, 3 mg/L; in the test on Burkholderia mallei CHN7, 6 mg/L. Also, the concentration for half-maximal inhibition (IC50) in [3] turned out to be 0.009 µM; in test [4], 0.08 µM; in [7], 0.06 µM.

`CCCCc1ccc2c(c1)cc(C=C(C)C(=O)c1c(O)cc(C(C)CC/C=C/NC(=O)OC)oc1=O)n2C` (mixture of isomers) [APY104, methyl ((1E)-5-(3-(3-(5-butyl-1-methyl-1H-indol-2-yl)-2-methylacryloyl)-4-hydroxy-2-oxo-2H-pyran-6-yl)hex-1-en-1-yl)carbamate]: the MIC in test [1] is 5 mg/L; in [2] it was 9 mg/L; in [5] it was greater than 50 mg/L; in test [6] it was 0.1 mg/L. Besides, the IC50 in test [3] was determined as 0.008 µM; in test [7] it was 0.2 µM.

Take `CCCCc1ccc(C=C(C)C(=O)c2c(O)cc(C(C)CC/C=C/NC(=O)OC)oc2=O)c(C)c1` (mixture of isomers) [APY87, methyl ((1E)-5-(3-(3-(4-butyl-2-methylphenyl)-2-methylacryloyl)-4-hydroxy-2-oxo-2H-pyran-6-yl)hex-1-en-1-yl)carbamate]: the MIC in test [1] is 1 mg/L; in test [2] it was greater than 40 mg/L; in [5], greater than 50 mg/L; in test [6] it was 0.2 mg/L. Further, the IC50 in [3] is 0.01 µM; in test [4] it was 0.07 µM; in [7], 0.03 µM.

Consider `COC(=O)N/C=C/CCC(C)c1cc(O)c(C(=O)C(C)=Cc2cc3cc(CCC(C)C)ccc3n2C)c(=O)o1` (mixture of isomers) [APY105, methyl ((1E)-5-(4-hydroxy-3-(3-(5-isopentyl-1-methyl-1H-indol-2-yl)-2-methylacryloyl)-2-oxo-2H-pyran-6-yl)hex-1-en-1-yl)carbamate], for which the figures for the MIC in [1], in test [2] and in test [6] were greater than 40 mg/L, greater than 40 mg/L and 2 mg/L, respectively. Further, the IC50 in test [3] came out at 0.04 µM; in test [7], 5 µM.

Take `COC(=O)N/C=C/CCC(C)c1cc(O)c(C(=O)C(C)=Cc2ccc(CCCCCF)s2)c(=O)o1` (stereo not drawn) [APY97, methyl ((1E)-5-(3-(3-(5-(5-fluoropentyl)thiophen-2-yl)-2-methylacryloyl)-4-hydroxy-2-oxo-2H-pyran-6-yl)hex-1-en-1-yl)carbamate]: the MIC in test [1] was 2 mg/L (≈ 3.96 µM); in test [2], greater than 40 mg/L; in [5] it was greater than 50 mg/L; in [6], 0.1 mg/L (≈ 0.198 µM). The IC50 in test [3] is 0.02 µM; in test [4], 0.4 µM.

Regarding `CCOc1ccc(C=C(C)C(=O)c2c(O)cc(C(C)CC/C=C/NC(=O)OC)oc2=O)s1` (mixture of isomers) [APY102, methyl ((1E)-5-(3-(3-(5-ethoxythiophen-2-yl)-2-methylacryloyl)-4-hydroxy-2-oxo-2H-pyran-6-yl)hex-1-en-1-yl)carbamate], the MIC in test [1] was 10 mg/L; in test [2], greater than 40 mg/L; in [5] it was 30 mg/L; in test [6], 1 mg/L. Also, the IC50 in test [3] was determined as 0.2 µM; in test [7] it was 0.5 µM.

Turning to `COC(=O)N/C=C/CCC(C)c1cc(O)c(C(=O)C(C)=Cc2ccc(OC)s2)c(=O)o1` (mixture of isomers) [APY101, methyl ((1E)-5-(4-hydroxy-3-(3-(5-methoxythiophen-2-yl)-2-methylacryloyl)-2-oxo-2H-pyran-6-yl)hex-1-en-1-yl)carbamate], the MIC was greater than 40 mg/L in [1], greater than 40 mg/L in test [2] and 3 mg/L in [6]. In addition, the IC50 in test [3] and in test [7] was greater than 6 µM in each case.

On to `COC(=O)N/C=C/CCC(C)c1cc(O)c(C(=O)C(C)=Cc2ccc(CCCCC(F)(F)F)s2)c(=O)o1` (mixture of isomers) [APY98, methyl ((1E)-5-(4-hydroxy-3-(2-methyl-3-(5-(5,5,5-trifluoropentyl)thiophen-2-yl)acryloyl)-2-oxo-2H-pyran-6-yl)hex-1-en-1-yl)carbamate], for which the MIC in [1] turned out to be 1 mg/L; in test [2] it was 20 mg/L; in test [5] it was 50 mg/L; in test [6], 0.1 mg/L. Moreover, the IC50 in test [3] came to 0.006 µM; in test [7], 0.04 µM.

Turning to `COC(=O)N/C=C/CCC(C)c1cc(O)c(C(=O)C(C)=Cc2ccc(CCCO)s2)c(=O)o1` (mixture of isomers) [APY94, methyl ((1E)-5-(4-hydroxy-3-(3-(5-(3-hydroxypropyl)thiophen-2-yl)-2-methylacryloyl)-2-oxo-2H-pyran-6-yl)hex-1-en-1-yl)carbamate], the MIC is greater than 40 mg/L in test [1], greater than 40 mg/L in [2] and 3 mg/L in test [6]. For the same compound, the IC50 in test [3] and in test [7] was greater than 6 µM in each case.

As to `CCCOc1ccc(C=C(C)C(=O)c2c(O)cc(C(C)CC/C=C/NC(=O)OC)oc2=O)s1` (mixture of isomers) [APY103, methyl ((1E)-5-(4-hydroxy-3-(2-methyl-3-(5-propoxythiophen-2-yl)acryloyl)-2-oxo-2H-pyran-6-yl)hex-1-en-1-yl)carbamate], the MIC in [1] was 2 mg/L; in [2], greater than 40 mg/L; in test [5] it was 30 mg/L; in [6], 0.4 mg/L. In addition, the half-inhibitory concentration (IC50) in [3] and in [7] was 0.02 µM in each case.

Regarding `CCCCc1ccc2cc(C=C(C)C(=O)c3c(O)cc(C(C)CC/C=C/NC(=O)OC)oc3=O)oc2c1` (mixture of isomers) [APY84, methyl ((1E)-5-(3-(3-(6-butylbenzofuran-2-yl)-2-methylacryloyl)-4-hydroxy-2-oxo-2H-pyran-6-yl)hex-1-en-1-yl)carbamate], the MIC was 3 mg/L in [1], greater than 40 mg/L in test [2], 30 mg/L in test [5] and 0.1 mg/L in test [6]. For the same compound, the IC50 in [3] was 0.002 µM; in [4] it was 0.06 µM; in [7], 0.02 µM.

For `COCc1ccc(C=C(C)C(=O)c2c(O)cc(C(C)CC/C=C/NC(=O)OC)oc2=O)s1` (mixture of isomers) [APY106, methyl ((1E)-5-(4-hydroxy-3-(3-(5-(methoxymethyl)thiophen-2-yl)-2-methylacryloyl)-2-oxo-2H-pyran-6-yl)hex-1-en-1-yl)carbamate], the MIC was greater than 40 mg/L in test [1], greater than 40 mg/L in [2] and 3 mg/L in [6]. Moreover, the IC50 in test [3] is 0.5 µM; in test [7], 4 µM.

As for `COC(=O)N/C=C/CCC(C)c1cc(O)c(C(=O)C(C)=Cc2ccc(CC3CC3)s2)c(=O)o1` (mixture of isomers) [APY125, methyl ((1E)-5-(3-(3-(5-(cyclopropylmethyl)thiophen-2-yl)-2-methylacryloyl)-4-hydroxy-2-oxo-2H-pyran-6-yl)hex-1-en-1-yl)carbamate], the MIC is 1 mg/L in test [1]; 20 mg/L in [2]; greater than 50 mg/L in test [8]; 50 mg/L in test [9]; 6 mg/L with Yersinia pestis C092; 10 mg/L in test [5]. Also, the MIC came out at 6 mg/L in test [10], 0.6 mg/L in test [6], 6 mg/L in the test with Brucella melitensis 16M and 10 mg/L in the test on Burkholderia mallei CHN7. Also, the IC50 in test [3] came out at 0.04 µM.
